Patent publication US5446066A, “Substituted (arylalkoxybenzyl)aminopropanamide derivatives and process for their preparation” (Farmitalia Carlo Erba S.r.l., priority 1993, dated 1995)

Legend:
in vivo = assay: in vivo
Procedure: The neurotoxicity of the compound and of the reference anticonvulsants was assessed with the rotorod test (Dunan and Miye., J. Am. Pharm. Ass. Sci. Ed., 1957, 46, 208; Kinnard et al., J. Pharmacol. Exp. Ther. 1957, 121, 354; Horowitz. Nature, 1963, 200, 369).
(§1) For instance, the following Table 1 summarizes the activity and neurotoxicity data obtained in the MES test and in the rotorod test, respectively, for a representative group of compounds according to the present invention, in comparison with the prior art compound 2-[4-(3-phenylpropyl)oxybenzyl]aminopropanamide methanesulfonate (internal code FCE 27023) which is known from WO-90/14334
TD50 means toxic dose in 50% of treated animals
TI means therapeutic index (TD50 /ED50)

[1] = antagonism of maximal electroshock seizures (MES test); format: in vivo; conditions: read-out: MES-ED50 (effective dose in 50% of treated animals)
Procedure: The compounds of the invention are active on the central nervous system (CNS) and can be used in therapy, for example as antiepileptics, in the treatment of Parkinson's disease and as neuroprotective agents, e.g. in degenerative processes associated with normal ageing or pathological situations, such as brain ischemia; they can also be used as antidepressants, hypnotics and antispastic agents. The activity on the CNS of the compounds of the invention was evaluated on the basis of pharmacological methods, such as, for example, the antagonism of convulsions and lethality induced by intravenous injection of bicuculline in mice (Antiepileptic Drugs, D. M. Woodbury et al. eds., 2nd edition, Raven Press, New York, 1982), or the antagonism of maximal electroshock seizures (MES) (Woodbury, L. A. and Davenport V. D., Arch. Int. Pharmacodyn. Ther. 92; 97-104, 1952).
as §1
ED50 means effective dose in 50% of treated animals

CC(NCc1ccc(OCCCc2ccccc2)cc1)C(N)=O (stereo not drawn) [compound 27023]
TD50 (in vivo): 584 mg/kg
selectivity ratio (in vivo): 66
ED50 [1]: 8.8 mg/kg

CC(NCc1ccc(OCCCCc2ccccc2)cc1)C(N)=O (stereo not drawn) [compound 28243]
TD50 (in vivo): 1000 mg/kg
selectivity ratio (in vivo): 82
ED50 [1]: 12.4 mg/kg

CC(NCc1ccc(OCCCCCc2ccccc2)cc1)C(N)=O (stereo not drawn) [compound 28244]
TD50 (in vivo): 1010 mg/kg
selectivity ratio (in vivo): 81
ED50 [1]: 12.5 mg/kg

NC(=O)C(CO)NCc1ccc(OCCCc2ccccc2)cc1 (stereo not drawn) [compound 28245]
TD50 (in vivo): 863 mg/kg
selectivity ratio (in vivo): 100
ED50 [1]: 8.6 mg/kg
